Where “and” joins values, the source holds several entries; their conditions need not be identical. Equal values may be shown once.
Tests used:
human URAT1 = human URAT1 (Homo sapiens (Human), UniProt Q96S37); experiment: URAT1 inhibition assay: [8-14C] urate uptake in hURAT1-HEK cells; assay type: cell-based; settings: for inhibition at 10 µM: hURAT1-HEK cells; for IC50: 14C urate uptake in hURAT1-HEK cells
Procedure: URAT1 (Uric Acid Transporter 1) is expressed on the apical membrane in renal tubules. It mediates the re-uptake of uric acid from the urine into the blood.
A suitable assay involves transfection of cells (e g human embryonic kidney cells; “HEK”) with a vector encoding human URAT1, followed by determination of the ability of transfected cells to take up radiolabeled uric acid. The activity of compounds as URAT1 inhibitors is evaluated by their ability to block uric acid uptake by transfected cells.
Test Compounds and Chemicals:
Urate (50-60 mCi/mmol; American Radio Chemicals, Cat. No. ARC0513).
Subcloning of hURAT1 into the Expression Vector:
Plasmid vector pCMV6-XL5 containing hURAT1 cDNA (Cat. No. SC125624) and the expression vector pCMV6-Neo (Cat. No. pCMVNEO) were obtained from OriGene Technologies, Inc. The full-length hURAT1 cDNA was obtained from the vector pCMV6-XL5 and subcloned into the expression vector pCMV6-Neo to create the hURAT1 expression plasmid pCMV6-hURAT1. The sequences were verified by automatic DNA sequencing.
Cell Culture, Transfection of URAT1 Expressing Plasmids and the Establishment of Stably Expressing HEK Cells for hURAT1:
For transfection experiments, cells were plated on 60 mm dishes in 1 ml media per dish. […] Stable transfectants expressing hURAT1 (herein after referred as hURAT1-HEK cells) or cells having only the expression vector pCMV6-Neo (herein after referred as mock-HEK cells) were verified using reverse transcription polymerase chain reaction (RT-PCR) methods.
[8-^14C] Urate Uptake Assay:
Before the uptake assay started, the culture medium was removed and the cells were incubated for 5 min in 0.6 ml of HBSS. After that HBSS was removed, the prepared reaction solutions were added into each well and incubated for 5 min at room temperature. Then the reaction solution was removed, cells were washed twice with 0.6 ml of cold HBSS and lysed with 0.2 ml of 0.1 M NaOH for 20 min. […] Test compounds were dissolved in DMSO and the same concentration of DMSO was added into the wells of mock-HEK cells and the hURAT1-HEK cells that didn't contain test compounds. For each test compound, the uptake assay was performed 2 times and carried out in triplicate. Urate uptake of the cells for each test condition was presented as the average percent inhibition in comparison to the DMSO control. The radioactivity values obtained for the wells that contained DMSO were taken as 100% uptake of the cells. The observed concentration-percent inhibition data were fitted to a sigmoidal concentration-effect model, where: % Inhibition=(100*Conc^Slope)/(IC50^Slope+Conc^Slope)
In this example the compounds were not necessarily tested simultaneously.

[1] = Rat pilot single-dose oral pharmacokinetic study with Compound EC; assay type: in vivo; settings: 100 mg/kg single oral gavage; for Compound EC concentration in plasma, individual rats: male Sprague-Dawley rat
Procedure: Rat Pilot Single-Dose Oral Pharmacokinetic Study with Compound EC
Determination of the Plasma Profile of Compound EC Following Single Oral Gavage Administration to Male Rats.
(§1) Test compound was suspended in 1% HPMC using a tissue homogenizer to minimize particles and maximize uniformity of the suspension and stored at 4° C. The formulations was thoroughly mixed just prior to administration. A dose of 100 mg/kg of test compounds or vehicle (1% HPMC) was administered to male Sprague-Dawley rats by single oral gavage. […] The blood samples were centrifuged within 30 minutes of collection under refrigeration (2-8° C.) for 7 minutes at 6000 rpm. Following centrifugation, the plasma were harvested into a single tube for each animal at each time point and immediately frozen at −80° C. until analyzed using LC/MS-MS. Serial plasma concentration time data was subjected to pharmacokinetic analyses using WinNonlin Standard (v2.1, Pharsight Corporation) and Microsoft EXCEL.
1. Rats received single oral gavage of Compound EC, 100 mg/kg, and plasma was collected at certain times.
(§2) 2. Plasma was stored at −80° C. until the day of analysis.
(§3) 3. Samples were thawed on 37° C. bath for 5 min and vortexed at top speed for 10 sec.
(§4) 4. Rat plasma, 0.1 mL was mixed with 0.2 mL Acetonitrile, vortexed 1 min, spun down 14000 rpm, 17000 g, at 4° C., for 25 min.
(§5) 5. Supernatants were filtered through 0.45 micron, 4 mm, PTFE membrane syringe filter (Phenomenex # AF0-3102-52), and 15 microL were injected and resolved on Luna 3 micron, 100 A pore, C8(2), 150×3 mm, reverse phase column (Phenomenex#00F-4248-YO, SN#259151-7) in 50 min linear gradient from 40% to 69% of (0.1% Formic Acid, 89.9% Acetonitrile, 10% Methanol) at 0.25 mL/min, 107 bar, 37° C. column temperature, method 406975M1, AGILENT sequence 0226-09A, Agilent 1100 LC-MS.
(§6) All samples were run in duplicate, 210 nm and 230 nm Absorbances, Negative and Positive ionization spectrograms were recorded.
Step 1. Plasma from “Vehicle” animals (pooled), 0.19 mL, was mixed with 0.01 mL 20× stock of Compound EC in Methanol to make 500 microM, 250 microM, 125 microM, concentrations of Compound EC in plasma.
For example: 190 microL plasma+10 microL of 10 mM Compound EC in methanol=0.2 mL plasma with 500 microM Compound EC.
(§7) Step 2. Samples from step 1 were vortexed for 10 sec at top speed.
(§8) Step 3. 0.4 mL of acetonitrile was added to all samples from Step 2, and all vials were vortexed at top speed for 1 min.
(§9) Step 4. All samples from step 3 were spun down 14000 rpm, 17000 g, at 4° C., for 25 min.
as §5, with “Step 5.” for “5.”, “AF0-3102-52),” for “AF0-3102-52), and”, “temperature. All samples were run in duplicate, 210 nm and 230 nm Absorbances, Negative and Positive ionization spectrograms were recorded.” for “temperature, method 406975M1, AGILENT sequence 0226-09A, Agilent 1100 LC-MS.”

[2] = Rat pilot single-dose oral pharmacokinetic study with Compound EG; assay type: in vivo; settings: 100 mg/kg single oral gavage; for Concentration of Compound EG in rat plasma, individual rats: male Sprague-Dawley rat
Procedure: Rat Pilot Single-Dose Oral Pharmacokinetic Study with Compound EG
Determination of the Plasma Profile of Compound EG Following Single Oral Gavage Administration to Male Rats.
as §1
1. Rats received single oral gavage of Compound EG, 100 mg/kg, and plasma was collected at certain times.
as §2, §3, §4, §5, §6
Step 1. Plasma from “Vehicle” animals (pooled), 0.19 mL, was mixed with 0.01 mL 20× stock of Compound EG in Methanol to make 500 microM, 250 microM, 125 microM, . . . , concentrations of Compound EG in plasma.
For example: 190 microL plasma+10 microL of 10 mM Compound EG in methanol=0.2 mL plasma with 500 microM Compound EG.
as §7, §8, §9
as §5, with “Step 5.” for “5.”, “AF0-3102-52),” for “AF0-3102-52), and”, “temperature. All samples were run in duplicate, 210 nm and 230 nm Absorbances, Negative and Positive ionization spectrograms were recorded.” for “temperature, method 406975M1, AGILENT sequence 0226-09A, Agilent 1100 LC-MS.”

[3] = Sprague-Dawley, rat, male rats, plasma
[4] = Sprague-Dawley, rat, male rats, plasma, read-out: AUC0-24
[5] = male, Sprague-Dawley, rat, plasma, 0 HR
[6] = male, Sprague-Dawley, rat, plasma, 0.25 HR
[7] = male, Sprague-Dawley, rat, plasma, 0.5 HR
[8] = male, Sprague-Dawley, rat, plasma, 1 HR
[9] = male, Sprague-Dawley, rat, plasma, 2 HR
[10] = male, Sprague-Dawley, rat, plasma, 4 HR
[11] = male, Sprague-Dawley, rat, plasma, 6 HR
[12] = male, Sprague-Dawley, rat, plasma, 8 HR
[13] = male, Sprague-Dawley, rat, plasma, 24 HR

Sequence of human URAT1 (Q96S37 whole entry): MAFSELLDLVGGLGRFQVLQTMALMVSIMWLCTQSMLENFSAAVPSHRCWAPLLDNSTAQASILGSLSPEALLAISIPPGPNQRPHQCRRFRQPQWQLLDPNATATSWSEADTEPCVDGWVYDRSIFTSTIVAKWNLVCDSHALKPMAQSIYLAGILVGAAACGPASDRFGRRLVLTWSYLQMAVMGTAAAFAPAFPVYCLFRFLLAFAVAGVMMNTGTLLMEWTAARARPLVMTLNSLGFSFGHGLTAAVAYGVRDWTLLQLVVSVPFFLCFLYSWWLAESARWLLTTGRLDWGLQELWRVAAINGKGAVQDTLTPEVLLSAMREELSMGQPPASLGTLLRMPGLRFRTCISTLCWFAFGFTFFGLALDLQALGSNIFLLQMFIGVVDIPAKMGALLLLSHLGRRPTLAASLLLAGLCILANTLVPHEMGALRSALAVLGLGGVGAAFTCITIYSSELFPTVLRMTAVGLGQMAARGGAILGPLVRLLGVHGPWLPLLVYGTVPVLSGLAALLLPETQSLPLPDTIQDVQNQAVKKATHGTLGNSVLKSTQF

SMILES: Fc1cccc(F)c1COc1ccc(Cc2nnn[nH]2)cc1 [BD, 5-(4-(2,6-Difluorobenzyloxy)benzyl)-1H-tetrazole]
- inhibition at 10 µM (human URAT1): 56.6%

SMILES: Cc1cccc(C)c1COc1cccc(Cc2nnn[nH]2)c1 [Compound EC, 5-(3-(2,6-Dimethylbenzyloxy)benzyl)-1H-tetrazole]
- inhibition at 10 µM (human URAT1): 95.2%
- IC50 (human URAT1): 240 nM
- Cmax [1, 3]: 61000 ng/mL
- AUC(0-t) [1, 4]: 672 µg·h/mL
- Compound EC concentration in plasma, individual rats ([1]; 0.25 HR): 114 µM and 67 µM
- Compound EC concentration in plasma, individual rats ([1]; 0.5 HR): 45 µM and 25 µM
- Compound EC concentration in plasma, individual rats ([1]; 1 HR): 17 µM and 222 µM
- Compound EC concentration in plasma, individual rats ([1]; 2 HR): 384 µM and 29 µM
- Compound EC concentration in plasma, individual rats ([1]; 4 HR): 35 µM and 11 µM
- Compound EC concentration in plasma, individual rats ([1]; 6 HR): 85 µM and 73 µM and 62 µM
- Compound EC concentration in plasma, individual rats ([1]; 8 HR): 107 µM and 262 µM
- Compound EC concentration in plasma, individual rats ([1]; 24 HR): 0 µM
- concentration at 0 h [1, 5]: 0 ng/mL
- concentration at 0.25 h [1, 6]: 27000 ng/mL
- concentration at 0.5 h [1, 7]: 10000 ng/mL
- concentration at 1 h [1, 8]: 35000 ng/mL
- concentration at 2 h [1, 9]: 61000 ng/mL
- concentration at 4 h [1, 10]: 7000 ng/mL
- concentration at 6 h [1, 11]: 22000 ng/mL
- concentration at 8 h [1, 12]: 54000 ng/mL
- concentration at 24 h [1, 13]: 0 ng/mL
- Detection in plasma (in words) ([1]; rat, LC-MS): readily detected

SMILES: Cc1ccc(Cc2nnn[nH]2)cc1OCc1c(C)cccc1C [Compound EG, 5-(3-(2,6-Dimethylbenzyloxy)-4-methylbenzyl)-1H-tetrazole]
- inhibition at 10 µM (human URAT1): 95.6%
- IC50 (human URAT1): 130 nM
- Cmax [2, 3]: 22000 ng/mL
- AUC(0-t) [2, 4]: 94.9 µg·h/mL
- Concentration of Compound EG in rat plasma, individual rats ([2]; 0.25 HR): 19 µM and 27 µM
- Concentration of Compound EG in rat plasma, individual rats ([2]; 0.5 HR): 29 µM and 18 µM
- Concentration of Compound EG in rat plasma, individual rats ([2]; 1 HR): 101 µM and 42 µM
- Concentration of Compound EG in rat plasma, individual rats ([2]; 2 HR): 25 µM and 50 µM
- Concentration of Compound EG in rat plasma, individual rats ([2]; 4 HR): 14 µM and 23 µM
- Concentration of Compound EG in rat plasma, individual rats ([2]; 6 HR): 10 µM and 17 µM
- Concentration of Compound EG in rat plasma, individual rats ([2]; 8 HR): 5 µM and 19 µM
- Concentration of Compound EG in rat plasma, individual rats ([2]; 24 HR): 2 µM and 0 µM
- concentration at 0 h [2, 5]: 0 ng/mL
- concentration at 0.25 h [2, 6]: 7000 ng/mL
- concentration at 0.5 h [2, 7]: 7000 ng/mL
- concentration at 1 h [2, 8]: 22000 ng/mL
- concentration at 2 h [2, 9]: 12000 ng/mL
- concentration at 4 h [2, 10]: 6000 ng/mL
- concentration at 6 h [2, 11]: 4000 ng/mL
- concentration at 8 h [2, 12]: 4000 ng/mL
- concentration at 24 h [2, 13]: 0 ng/mL
- Detection in plasma (in words) ([2]; rat, LC-MS): readily detected

SMILES: COc1ccc(Cc2nnn[nH]2)cc1OCc1c(C)cccc1C [ED, 5-(3-(2,6-Dimethylbenzyloxy)-4-methoxybenzyl)-1H-tetrazole]
- inhibition at 10 µM (human URAT1): 96%
- IC50 (human URAT1): 250 nM

SMILES: Cc1cccc(C)c1COc1cccc(CCc2nnn[nH]2)c1 [EF, 5-(3-(2,6-Dimethylbenzyloxy)phenethyl)-1H-tetrazole]
- inhibition at 10 µM (human URAT1): 92%
- IC50 (human URAT1): 740 nM

SMILES: Cc1cccc(C)c1COc1cccc(Cc2nnn[nH]2)c1C [EH, 5-(3-(2,6-Dimethylbenzyloxy)-2-methylbenzyl)-1H-tetrazole]
- inhibition at 10 µM (human URAT1): 80%

SMILES: COc1c(Cc2nnn[nH]2)cccc1OCc1c(C)cccc1C [EI, 5-(3-(2,6-Dimethylbenzyloxy)-2-methoxybenzyl)-1H-tetrazole]
- inhibition at 10 µM (human URAT1): 44%

Reference: patent US8889724B2, “Tetrazole compounds for reducing uric acid” (Wellstat Therapeutics Corporation, priority 2008, dated 2014)
